For the assay, the target named is T1, human SARM1(50-724) (Homo sapiens, UniProt Q6SZW1).
T1 construct: 40 nM human SARM1(50-724)
T1 sequence (Q6SZW1 50-724): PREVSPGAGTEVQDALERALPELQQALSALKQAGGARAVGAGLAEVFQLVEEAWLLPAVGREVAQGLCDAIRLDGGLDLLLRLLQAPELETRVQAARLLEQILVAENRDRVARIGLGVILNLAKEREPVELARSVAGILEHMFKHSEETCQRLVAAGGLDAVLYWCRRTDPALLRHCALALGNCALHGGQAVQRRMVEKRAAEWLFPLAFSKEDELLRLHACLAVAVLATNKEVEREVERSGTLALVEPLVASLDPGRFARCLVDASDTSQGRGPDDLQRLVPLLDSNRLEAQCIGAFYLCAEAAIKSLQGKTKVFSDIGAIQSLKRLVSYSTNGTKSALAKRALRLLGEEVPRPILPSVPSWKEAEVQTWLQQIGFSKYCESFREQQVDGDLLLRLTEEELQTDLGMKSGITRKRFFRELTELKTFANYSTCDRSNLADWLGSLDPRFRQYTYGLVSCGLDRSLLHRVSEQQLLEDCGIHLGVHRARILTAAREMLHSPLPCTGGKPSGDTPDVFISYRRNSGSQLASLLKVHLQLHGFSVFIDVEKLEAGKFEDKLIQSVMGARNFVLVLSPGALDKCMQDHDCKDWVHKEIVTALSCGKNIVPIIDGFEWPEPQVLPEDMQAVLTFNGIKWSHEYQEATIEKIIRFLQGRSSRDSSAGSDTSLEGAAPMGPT
In words: SARM1 NADase biochemical assay (HPLC of NAD and NAM). To be noted: 40 nM human SARM1(50-724), 0.3 mM NMN, 20 μM NAD, 60 minutes room temperature; dose-response from 100 μM, 1:3 dilution. Put shortly:
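Human SARM1(50-724) at 40 nM with 0.3 mM NMN, 20 μM NAD, 1 mM TCEP in 25 mM HEPES pH 7.4, 10 mM KCl, 10 mM MgCl2, 1% DMSO; 60 min at room temperature, formic acid quench. NAD and NAM quantified by reverse-phase HPLC peak area; single point 50 μM or 1:3 series from 100 μM.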
As to `Cc1c(-c2ccncc2)n[nH]c1NC(=O)CCc1cc(Cl)cs1` [Example 73], the IC50 (commonly the concentration that inhibits the measured activity by half) is below 1 µM.
To `Cc1c(-c2ccncc2)n[nH]c1NC(=O)CCc1ccc(Cl)s1` [Example 74] belongs below 1 µM.
As for `Cc1c(-c2ccncc2)n[nH]c1NC(=O)CCc1cnc(Cl)s1` [Example 75, 3-(2-Chlorothiazol-5-yl)-N-(4-methyl-3-(pyridin-4-yl)-1H-pyrazol-5-yl)propanamide], the figure is below 1 µM; as for `Cc1c(-c2ccncc2)n[nH]c1NC(=O)CCc1ncc(Cl)s1` [Example 76], 1 to 10 µM.
Turning to `Cc1c(-c2ccncc2)n[nH]c1NC(=O)CCn1cc(Cl)cn1` [Example 77, 3-(4-Chloro-1H-pyrazol-1-yl)-N-(4-methyl-3-(pyridin-4-yl)-1H-pyrazol-5-yl)propenamide], the IC50 lay within 1 to 10 µM.
As for `Cc1c(-c2ccncc2)n[nH]c1NC(=O)CCc1cc(Cl)no1` [Example 78, 3-(3-Chloroisoxazol-5-yl)-N-(4-methyl-3-(pyridin-4-yl)-1H-pyrazol-5-yl)propanamide], the figure is below 1 µM; as for `Cc1c(-c2ccncc2)n[nH]c1NC(=O)CNc1ccc(Cl)cc1` [Example 79, 2-((4-Chlorophenyl)amino)-N-(4-methyl-3-(pyridin-4-yl)-1H-pyrazol-5-yl)acetamide], below 1 µM; as for `Cc1c(-c2ccncc2)n[nH]c1NC(=O)C(F)(F)Cc1ccc(Cl)cc1` [Example 80, 3-(4-Chlorophenyl)-2,2-difluoro-N-(4-methyl-3-(pyridin-4-yl)-1H-pyrazol-5-yl)propanamide], 1 to 10 µM.
As for `Cc1c(NC(=O)CSc2ccc(Cl)cc2)cnn1-c1ccncc1` [Example 81, 2-((4-Chlorophenyl)thio)-N-(5-methyl-1-(pyridin-4-yl)-1H-pyrazol-4-yl)acetamide], the figure is below 1 µM; as for `Cc1c(NC(=O)CCc2ccc(Cl)nc2)cnn1-c1ccncc1` [Example 82], below 1 µM; as for `Cc1c(NC(=O)CCc2cc(F)c(Cl)c(F)c2)cnn1-c1ccncc1` [Example 83, 3-(4-Chloro-3,5-difluorophenyl)-N-(5-methyl-1-(pyridin-4-yl)-1H-pyrazol-4-yl)propanamide], below 1 µM.
Take `Cc1c(NC(=O)CCc2cc(F)c(F)c(F)c2)cnn1-c1ccncc1` [Example 84, N-(5-Methyl-1-(pyridin-4-yl)-1H-pyrazol-4-yl)-3-(3,4,5-trifluorophenyl)propanamide]: the IC50 is below 1 µM.
As to `Cc1c(NC(=O)COc2ccc(Cl)cc2)cnn1-c1ccncc1` [Example 85, 2-(4-Chlorophenoxy)-N-(5-methyl-1-(pyridin-4-yl)-1H-pyrazol-4-yl)acetamide], the IC50 fell in the range of 1 to 10 µM.
As for `Cc1c(NC(=O)CCc2ccc(Cl)cc2)cnn1-c1ccncc1` [Example 86], the figure is below 1 µM; as for `O=C(CCc1cc(F)c(Cl)c(F)c1)Nc1cnn(-c2ccncc2)c1` [Example 88, 3-(4-Chloro-3,5-difluorophenyl)-N-[1-(pyridin-4-yl)-1H-pyrazol-4-yl]propanamide], below 1 µM.
As for `O=C(CCc1ccc(Cl)cc1)Nc1cnn(-c2ccncc2)c1` [Example 89, 3-(4-Chlorophenyl)-N-(1-(pyridin-4-yl)-1H-pyrazol-4-yl)propanamide], the figure is 1 to 10 µM.
For `O=C(CCc1ccc(Cl)cc1)Nc1cnn(-c2ccncc2)c1Cl` [Example 90], the 50% inhibitory concentration (IC50) was below 1 µM.
Take `O=C(CCc1cc(F)c(Cl)c(F)c1)Nc1cnn(-c2ccncc2)c1Cl` [Example 91, N-(5-Chloro-1-(pyridin-4-yl)-1H-pyrazol-4-yl)-3-(4-chloro-3,5-difluorophenyl)propanamide]: the IC50 was below 1 µM.
Turning to `O=C(CCc1cc(F)c(F)c(F)c1)Nc1cnn(-c2ccncc2)c1Cl` [Example 92, N-(5-Chloro-1-(pyridin-4-yl)-1H-pyrazol-4-yl)-3-(3,4,5-trifluorophenyl)propanamide], the IC50 is below 1 µM.
